# Assay results: PubChem BioAssay AID342 (DTP/NCI, 2004)
# Where “and” joins values, the source holds several entries; their conditions need not be identical. Equal entries are not always repeated.
# System: Swiss mice, Sarcoma 180 sc, mean tumor weight T/C
# Assay: NCI In Vivo Anticancer Drug Screen. Data for tumor model Sarcoma 180 (subcutaneous) in Swiss mice
# Conditions: endpoint: mean tumor weight, higher = larger tumour
# Method in brief: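 Transplantable tumors were established in mice, compound was given, then survival or tumor size was recorded. The treated value was divided by the vehicle-control value.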
# [1] = dose: 100.0 mg/kg/injection, schedule: Q01DX007 (ip), vehicle: carboxymethylcellulose (CMC)
# [2] = dose: 75.0 mg/kg/injection, schedule: Q01DX007 (ip), vehicle: carboxymethylcellulose (CMC)
# [3] = dose: 50.0 mg/kg/injection, schedule: Q01DX007 (ip), vehicle: carboxymethylcellulose (CMC)
smiles,measurement,setting,value
S=c1nc[nH]c2nc[nH]c12,T/C,"dose: 3.25 mg/kg/injection, schedule: Q#A X014 (ip), vehicle: carboxymethylcellulose (CMC)",62 % of control
same,T/C,"dose: 3.62 mg/kg/injection, schedule: Q#A X014 (ip), vehicle: carboxymethylcellulose (CMC)",83 % of control
same,T/C,"dose: 6.5 mg/kg/injection, schedule: Q#A X014 (ip), vehicle: carboxymethylcellulose (CMC)",61 % of control
same,T/C,"dose: 7.25 mg/kg/injection, schedule: Q#A X014 (ip), vehicle: carboxymethylcellulose (CMC)",56 % of control
same,T/C,"dose: 7.5 mg/kg/injection, schedule: Q01DX007 (ip), vehicle: other",102 % of control
same,T/C,"dose: 10.4 mg/kg/injection, schedule: Q01DX007 (ip), vehicle: carboxymethylcellulose (CMC)",51 % of control
same,T/C,"dose: 13.0 mg/kg/injection, schedule: Q01DX007 (ip), vehicle: carboxymethylcellulose (CMC)",66 % of control
same,T/C,"dose: 13.0 mg/kg/injection, schedule: Q#A X014 (ip), vehicle: carboxymethylcellulose (CMC)",28 % of control
same,T/C,"dose: 14.5 mg/kg/injection, schedule: Q01DX007 (ip), vehicle: carboxymethylcellulose (CMC)",73 % of control and 83 % of control
same,T/C,"dose: 14.5 mg/kg/injection, schedule: Q#A X014 (ip), vehicle: carboxymethylcellulose (CMC)",48 % of control
same,T/C,"dose: 15.0 mg/kg/injection, schedule: Q01DX007 (ip), vehicle: other",101 % of control
same,T/C,"dose: 15.0 mg/kg/injection, schedule: Q#A X014 (ip), vehicle: methylcellulose (MC)",60 % of control
same,T/C,"dose: 17.3 mg/kg/injection, schedule: Q01DX007 (ip), vehicle: carboxymethylcellulose (CMC)",51 % of control
same,T/C,"dose: 19.0 mg/kg/injection, schedule: Q01DX007 (ip), vehicle: carboxymethylcellulose (CMC)",72 % of control
same,T/C,"dose: 23.2 mg/kg/injection, schedule: Q01DX007 (ip), vehicle: carboxymethylcellulose (CMC)",49 % of control
same,T/C,"dose: 25.0 mg/kg/injection, schedule: Q#A X014 (ip), vehicle: methylcellulose (MC)",55 % of control
same,T/C,"dose: 26.0 mg/kg/injection, schedule: Q01DX007 (ip), vehicle: carboxymethylcellulose (CMC)",36 % of control
same,T/C,"dose: 26.0 mg/kg/injection, schedule: Q#A X014 (ip), vehicle: carboxymethylcellulose (CMC)",32 % of control
same,T/C,"dose: 29.0 mg/kg/injection, schedule: Q#A X014 (ip), vehicle: carboxymethylcellulose (CMC)",20 % of control
same,T/C,"dose: 30.0 mg/kg/injection, schedule: Q01DX007 (ip), vehicle: other",78 % of control
same,T/C,"dose: 37.5 mg/kg/injection, schedule: Q#A X014 (ip), vehicle: methylcellulose (MC)",34 % of control
same,T/C,"dose: 38.6 mg/kg/injection, schedule: Q01DX007 (ip), vehicle: carboxymethylcellulose (CMC)",36 % of control
same,T/C,"dose: 43.5 mg/kg/injection, schedule: Q01DX007 (ip), vehicle: carboxymethylcellulose (CMC)",27 % of control and 47 % of control
same,T/C,"dose: 44.0 mg/kg/injection, schedule: Q01DX007 (ip), vehicle: carboxymethylcellulose (CMC)",49 % of control
same,T/C,"dose: 50.0 mg/kg/injection, schedule: Q#A X014 (ip), vehicle: methylcellulose (MC)",14 % of control
same,T/C,"dose: 58.0 mg/kg/injection, schedule: Q01DX007 (ip), vehicle: carboxymethylcellulose (CMC)",14 % of control and 21 % of control and 28 % of control
same,T/C,"dose: 60.0 mg/kg/injection, schedule: Q01DX007 (ip), vehicle: other",33 % of control and 47 % of control
same,T/C,"dose: 66.0 mg/kg/injection, schedule: Q01DX007 (ip), vehicle: carboxymethylcellulose (CMC)",34 % of control
same,T/C,[1],24 % of control
Nc1ncnc2c1ncn2C1OC(CO)CC1O (centres undefined),T/C,"dose: 37.0 mg/kg/injection, schedule: Q01DX007 (ip), vehicle: carboxymethylcellulose (CMC)",104 % of control
same,T/C,[2],122 % of control
same,T/C,"dose: 150.0 mg/kg/injection, schedule: Q01DX007 (ip), vehicle: carboxymethylcellulose (CMC)",80 % of control
same,T/C,"dose: 300.0 mg/kg/injection, schedule: Q01DX007 (ip), vehicle: carboxymethylcellulose (CMC)",53 % of control
O=C(O)c1[nH]c(=O)[nH]c(=O)c1F,T/C,"dose: 3.35 mg/kg/injection, schedule: Q#A X014 (ip), vehicle: methylcellulose (MC)",62 % of control
same,T/C,"dose: 5.0 mg/kg/injection, schedule: Q#A X014 (ip), vehicle: methylcellulose (MC)",49 % of control
same,T/C,"dose: 7.5 mg/kg/injection, schedule: Q#A X014 (ip), vehicle: methylcellulose (MC)",46 % of control
same,T/C,"dose: 11.25 mg/kg/injection, schedule: Q#A X014 (ip), vehicle: methylcellulose (MC)",22 % of control
CCOC(=O)c1ccc(N=NN(C)C)cc1,T/C,"dose: 62.0 mg/kg/injection, schedule: Q01DX007 (ip), vehicle: carboxymethylcellulose (CMC)",74 % of control
same,T/C,"dose: 125.0 mg/kg/injection, schedule: Q01DX007 (ip), vehicle: carboxymethylcellulose (CMC)",49 % of control
same,T/C,"dose: 187.0 mg/kg/injection, schedule: Q01DX007 (ip), vehicle: carboxymethylcellulose (CMC)",23 % of control
same,T/C,"dose: 250.0 mg/kg/injection, schedule: Q01DX007 (ip), vehicle: carboxymethylcellulose (CMC)",12 % of control
CCCCNC(=O)c1n[se]nc1NC(N)=O,T/C,"dose: 15.0 mg/kg/injection, schedule: Q01DX007 (ip), vehicle: carboxymethylcellulose (CMC)",94 % of control
same,T/C,"dose: 30.0 mg/kg/injection, schedule: Q01DX007 (ip), vehicle: carboxymethylcellulose (CMC)",114 % of control
O=[N+]([O-])c1ccc(O)c([N+](=O)[O-])c1,T/C,"dose: 1325.0 micrograms/kg/injection, schedule: Q01DX007 (ip), vehicle: carboxymethylcellulose (CMC)",69 % of control
same,T/C,"dose: 2650.0 micrograms/kg/injection, schedule: Q01DX007 (ip), vehicle: carboxymethylcellulose (CMC)",96 % of control
same,T/C,"dose: 4300.0 micrograms/kg/injection, schedule: Q01DX007 (ip), vehicle: carboxymethylcellulose (CMC)",71 % of control
same,T/C,"dose: 6625.0 micrograms/kg/injection, schedule: Q01DX007 (ip), vehicle: carboxymethylcellulose (CMC)",79 % of control
N#Cc1cn(C2OC(CO)C(O)C2O)c2ncnc(N)c12 (centres undefined),T/C,"dose: 0.05 mg/kg/injection, schedule: Q#A X014 (ip), vehicle: carboxymethylcellulose (CMC)",79 % of control
Cc1ccc(NCC2(/N=C/c3ccccc3)OC(CO)C(O)C2O)cc1 (centres undefined),T/C,"dose: 111.0 mg/kg/injection, schedule: Q#A X014 (ip), vehicle: methylcellulose (MC)",71 % of control and 72 % of control
same,T/C,"dose: 250.0 mg/kg/injection, schedule: Q#A X014 (ip), vehicle: methylcellulose (MC)",67 % of control and 90 % of control
CC(=O)[C@H]1CC[C@H]2[C@@H]3CCC4=CC(=O)CC[C@]4(C)[C@H]3CC[C@]12C,T/C,"dose: 125.0 mg/kg/injection, schedule: Q01DX007 (sc), vehicle: steriod suspending solution",89 % of control
same,T/C,"dose: 250.0 mg/kg/injection, schedule: Q01DX007 (sc), vehicle: steriod suspending solution",76 % of control
same,T/C,"dose: 500.0 mg/kg/injection, schedule: Q01DX007 (sc), vehicle: steriod suspending solution",61 % of control
same,T/C,"dose: 1000.0 mg/kg/injection, schedule: Q01DX007 (sc), vehicle: steriod suspending solution",79 % of control
Nc1ccn(C2OC(CO)C(O)C2O)c(=O)n1 (centres undefined),T/C,"dose: 8.0 mg/kg/injection, schedule: Q01DX007 (ip), vehicle: saline",47 % of control and 51 % of control
same,T/C,"dose: 12.0 mg/kg/injection, schedule: Q01DX007 (ip), vehicle: saline",61 % of control and 70 % of control
same,T/C,"dose: 27.0 mg/kg/injection, schedule: Q01DX007 (ip), vehicle: saline",51 % of control and 73 % of control
same,T/C,"dose: 40.0 mg/kg/injection, schedule: Q01DX007 (ip), vehicle: saline",37 % of control and 46 % of control
same,T/C,"dose: 60.0 mg/kg/injection, schedule: Q01DX007 (ip), vehicle: saline",13 % of control and 16 % of control
same,T/C,"dose: 90.0 mg/kg/injection, schedule: Q01DX007 (ip), vehicle: saline",10 % of control
NN1CCCC1,T/C,"dose: 33.0 mg/kg/injection, schedule: Q01DX007 (ip), vehicle: carboxymethylcellulose (CMC)",86 % of control
same,T/C,"dose: 33.0 mg/kg/injection, schedule: Q01DX007 (ip), vehicle: saline",161 % of control
same,T/C,[3],71 % of control
same,T/C,"dose: 50.0 mg/kg/injection, schedule: Q01DX007 (ip), vehicle: saline",179 % of control
same,T/C,[2],20 % of control
same,T/C,"dose: 75.0 mg/kg/injection, schedule: Q01DX007 (ip), vehicle: saline",86 % of control
same,T/C,"dose: 113.0 mg/kg/injection, schedule: Q01DX007 (ip), vehicle: saline",70 % of control
same,T/C,"dose: 133.0 mg/kg/injection, schedule: Q01DX007 (ip), vehicle: saline",55 % of control
same,T/C,"dose: 200.0 mg/kg/injection, schedule: Q01DX007 (ip), vehicle: saline",36 % of control
CC(CN)CCC(C)(O)C(N)=O (centres undefined),T/C,"dose: 83.0 mg/kg/injection, schedule: Q#A X014 (ip), vehicle: methylcellulose (MC)",63 % of control
same,T/C,"dose: 125.0 mg/kg/injection, schedule: Q#A X014 (ip), vehicle: methylcellulose (MC)",49 % of control
same,T/C,"dose: 187.5 mg/kg/injection, schedule: Q#A X014 (ip), vehicle: methylcellulose (MC)",47 % of control
CCCCOCN1CCCCC1,T/C,[3],64 % of control
same,T/C,[1],123 % of control
